Each structure is given as a SMILES string. Starred links: 1 amine or outer side, 2 acyl side, 3 side chain; linkers in the order of their positions; H or OH if unused. Positions of bridges follow the written chain, without caps; N, C: chain ends. Non-standard residues stand in square brackets, D forms with d. Residues, ends and D or L forms follow the SMILES beside them. Groups on a side chain read outwards from the residue. *: point of attachment. Trp(1-Me) = Cn1cc(C[C@H](N)C(=O)O)c2ccccc21; C18 diacid = O=C(O)CCCCCCCCCCCCCCCCC(=O)*; γGlu = O=C(O)[C@H](CCC(=O)[*:2])N[*:1]; 1Nal = N[C@@H](Cc1cccc2ccccc12)C(=O)O; Sar = CNCC(=O)O

The record followed here is patent US11965039B2, “Compstatin analogues and their medical uses” (priority 2018, dated 2024).

The subject of series [1] is classical complement pathway. The series can be described thus: In vitro haemolysis assay (inhibition of classical complement pathway). It is filed as cell-based, human. The following applies: human serum, sensitized sheep red blood cells; Table 3, given as upper bounds; read-out: IC50, inhibition of hemolysis. An outline of the steps:
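Compound dilutions preincubated 15 min at room temperature with diluted human serum (titrated per batch for 70-90% maximal haemolysis), then antibody-sensitized sheep RBC (10^7/well) added for 30 min at 37 °C in Tris/casein buffer, pH 7.4. Stopped with EDTA; haemolysis read at 405 nm; IC50 by 4PL fit.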

The nature of series [2]: Solubility test at 10 mg/mL (visual inspection and light scattering). The following applies: for Solubility, Condition 1: Acetate pH 4; for Solubility, Condition 2: Acetate pH 5; for Solubility, Condition 3: Phosphate pH 6; for Solubility, Condition 4: Phosphate pH 7; for Solubility, Condition 5: Phosphate pH 7.5. It is filed as physicochemical. As to the method: The solubility of compounds was assessed by measuring light scattering over a pH interval from pH 4 to pH 7.5.
Compounds were dissolved in a stock solution of 20 mg/mL in H2O at pH 2.5 or pH 10. These stock solutions were diluted 1:1 with 200 mM buffered solution to reach a final solution of 10 mg/mL compound in 100 mM buffer. The 5 investigated conditions were (1) acetate pH 4.0, (2) acetate pH 5.0, (3) phosphate pH 6.0, (4) phosphate pH 7 and (5) phosphate pH 7.5.
Visual inspection included manually checking the 96 well plate for wells that are clear or non-clear. In addition to this a picture of the 96 well plate is taken.
Absorbance was measured at four wavelengths: 280 nm, 325 nm, 340 nm and 360 nm in an UV transparent 96 well microplate in a SpectraMax 190 microplate reader (Molecular Devices).
The criteria for this was a combination of visual inspection and light scattering not exceeding 0.1 AU, where values below 0.1 AU are good in visually clear samples.

Consider `CC[C@H](C)[C@@H]1NC(=O)[C@@H](NC(=O)[C@@H](NC(=O)[C@H](CCC(=O)O)NC(C)=O)[C@@H](C)CC)CSSC[C@@H](C(=O)N[C@H](C(=O)N[C@@H](CCC(=O)O)C(N)=O)[C@@H](C)O)NC(=O)[C@H](CCCNC(=N)N)NC(=O)[C@H](Cc2c[nH]cn2)NC(=O)[C@H](CCC(=O)O)NC(=O)CNC(=O)[C@H](Cc2c[nH]c3ccccc23)NC(=O)[C@H](CC(=O)O)NC(=O)[C@H](CCC(N)=O)NC(=O)[C@H](Cc2c[nH]c3ccccc23)NC1=O` [Compound 33] (Ac-EICIWQDWGEHRCTE-NH2; disulfide 3-13), for which the IC50 in series [1] is < 100 nM. In addition, in series [2], the “Solubility, Condition 1” value is on record as “− (“−” denotes lack of solubility at the given condition, as UV absorbance at 340 nm exceeds 0.1 AU and/or it is visibly turbid or contains particles)”; the “Solubility, Condition 2” value was “− (“−” denotes lack of solubility at the given condition, as UV absorbance at 340 nm exceeds 0.1 AU and/or it is visibly turbid or contains particles)”; the “Solubility, Condition 3” value is “+ (“+” denotes solubility at the given condition, as determined by UV absorbance being less than 0.1 AU at 340 nm and the sample being clear when manually inspected)”; the “Solubility, Condition 4” value was “+ (“+” denotes solubility at the given condition, as determined by UV absorbance being less than 0.1 AU at 340 nm and the sample being clear when manually inspected)”. In addition, the “Solubility, Condition 5” value in series [2] is “+ (“+” denotes solubility at the given condition, as determined by UV absorbance being less than 0.1 AU at 340 nm and the sample being clear when manually inspected)”.

In the case of `CC[C@H](C)[C@@H]1NC(=O)[C@@H](NC(=O)[C@@H](NC(=O)[C@H](CCC(=O)O)NC(=O)CNC(=O)[C@H](CCC(=O)O)NC(C)=O)[C@@H](C)CC)CSSC[C@@H](C(=O)N[C@H](C(N)=O)[C@@H](C)O)NC(=O)[C@H](CCCNC(=N)N)NC(=O)[C@H](Cc2c[nH]cn2)NC(=O)[C@H](CCC(=O)O)NC(=O)CNC(=O)[C@H](Cc2c[nH]c3ccccc23)NC(=O)[C@H](CC(=O)O)NC(=O)[C@H](CCC(N)=O)NC(=O)[C@H](Cc2c[nH]c3ccccc23)NC1=O` [Compound 30] (Ac-EGEICIWQDWGEHRCT-NH2; disulfide 5-15), in series [1], the concentration for half-maximal inhibition (IC50) was < 100 nM. Further, in series [2], the “Solubility, Condition 1” value is “− (“−” denotes lack of solubility at the given condition, as UV absorbance at 340 nm exceeds 0.1 AU and/or it is visibly turbid or contains particles)”; the “Solubility, Condition 2” value was “− (“−” denotes lack of solubility at the given condition, as UV absorbance at 340 nm exceeds 0.1 AU and/or it is visibly turbid or contains particles)”; the “Solubility, Condition 4” value is “+ (“+” denotes solubility at the given condition, as determined by UV absorbance being less than 0.1 AU at 340 nm and the sample being clear when manually inspected)”; the “Solubility, Condition 5” value was “+ (“+” denotes solubility at the given condition, as determined by UV absorbance being less than 0.1 AU at 340 nm and the sample being clear when manually inspected)”.

Consider `CC[C@H](C)[C@@H]1NC(=O)[C@@H](NC(=O)[C@H](Cc2ccc(O)cc2)NC(=O)[C@H](CCC(=O)O)NC(=O)[C@H](CO)NC(C)=O)CSSC[C@@H](C(=O)N(C)CC(=O)N[C@@H](CCC(=O)O)C(=O)NCC(=O)N[C@@H](CCCCN)C(=O)N[C@@H](CCCCNC(=O)CC[C@H](NC(=O)CNC(=O)CC[C@H](NC(=O)CCCCCCCCCCCCCCCCC(=O)O)C(=O)O)C(=O)O)C(N)=O)NC(=O)[C@H](CCCNC(=N)N)NC(=O)[C@H](Cc2c[nH]cn2)NC(=O)[C@H](CCC(=O)O)NC(=O)CNC(=O)[C@H](Cc2c[nH]c3ccccc23)NC(=O)[C@H](CC(=O)O)NC(=O)[C@H](CCC(N)=O)NC(=O)[C@H](Cc2cn(C)c3ccccc23)NC1=O` [Compound 115] (Ac-SEYCI[Trp(1-Me)]QDWGEHRC[Sar]EGKK([γGlu-Gly-γGlu-C18 diacid])-NH2; disulfide 4-14), for which, in series [1], the IC50 was < 250 nM. For the same compound, in series [2], the “Solubility, Condition 1” value is “− (“−” denotes lack of solubility at the given condition, as UV absorbance at 340 nm exceeds 0.1 AU and/or it is visibly turbid or contains particles)”; the “Solubility, Condition 2” value is recorded as “− (“−” denotes lack of solubility at the given condition, as UV absorbance at 340 nm exceeds 0.1 AU and/or it is visibly turbid or contains particles)”; the “Solubility, Condition 3” value was “+ (“+” denotes solubility at the given condition, as determined by UV absorbance being less than 0.1 AU at 340 nm and the sample being clear when manually inspected)”; the “Solubility, Condition 4” value was “+ (“+” denotes solubility at the given condition, as determined by UV absorbance being less than 0.1 AU at 340 nm and the sample being clear when manually inspected)”. The “Solubility, Condition 5” value in series [2] is “+ (“+” denotes solubility at the given condition, as determined by UV absorbance being less than 0.1 AU at 340 nm and the sample being clear when manually inspected)”.

For `CC[C@H](C)[C@@H]1NC(=O)[C@@H](NC(=O)[C@H](Cc2ccc(O)cc2)NC(=O)[C@H](CCC(=O)O)NC(=O)[C@H](CO)NC(=O)CNC(=O)[C@H](CCC(=O)O)NC(=O)CCCCCCCCCCCCCCCCC(=O)O)CSSC[C@@H](C(=O)N(C)CC(=O)N[C@@H](CCC(=O)O)C(N)=O)NC(=O)[C@H](CCCNC(=N)N)NC(=O)[C@H](Cc2c[nH]cn2)NC(=O)[C@H](CCC(=O)O)NC(=O)CNC(=O)[C@H](Cc2c[nH]c3ccccc23)NC(=O)[C@H](CC(=O)O)NC(=O)[C@H](CCC(N)=O)NC(=O)[C@H](Cc2cn(C)c3ccccc23)NC1=O` [Compound 108] ({C18 diacid}-EGSEYCI[Trp(1-Me)]QDWGEHRC[Sar]E-NH2; disulfide 6-16), in series [1], the half-inhibitory concentration (IC50) is < 500 nM. Further, in series [2], the “Solubility, Condition 1” value is on record as “− (“−” denotes lack of solubility at the given condition, as UV absorbance at 340 nm exceeds 0.1 AU and/or it is visibly turbid or contains particles)”; the “Solubility, Condition 2” value was “− (“−” denotes lack of solubility at the given condition, as UV absorbance at 340 nm exceeds 0.1 AU and/or it is visibly turbid or contains particles)”; the “Solubility, Condition 3” value is “+ (“+” denotes solubility at the given condition, as determined by UV absorbance being less than 0.1 AU at 340 nm and the sample being clear when manually inspected)”; the “Solubility, Condition 4” value was “+ (“+” denotes solubility at the given condition, as determined by UV absorbance being less than 0.1 AU at 340 nm and the sample being clear when manually inspected)”. Besides, in series [2], the “Solubility, Condition 5” value was “+ (“+” denotes solubility at the given condition, as determined by UV absorbance being less than 0.1 AU at 340 nm and the sample being clear when manually inspected)”.

On to `CC[C@H](C)[C@@H]1NC(=O)[C@@H](NC(=O)[C@H](Cc2ccccc2)NC(=O)[C@H](C)NC(=O)[C@H](CO)NC(=O)CNC(=O)[C@H](CCC(=O)O)NC(C)=O)CSSC[C@@H](C(=O)N[C@H](C(=O)N[C@@H](CCC(=O)O)C(N)=O)[C@@H](C)O)NC(=O)[C@H](CCCNC(=N)N)NC(=O)[C@H](Cc2c[nH]cn2)NC(=O)[C@H](CCC(=O)O)NC(=O)CNC(=O)[C@H](Cc2c[nH]c3ccccc23)NC(=O)[C@H](CC(=O)O)NC(=O)[C@H](CCC(N)=O)NC(=O)[C@H](Cc2cccc3ccccc23)NC1=O` [Compound 56] (Ac-EGSAFCI[1Nal]QDWGEHRCTE-NH2; disulfide 6-16), for which the IC50 in series [1] is < 100 nM. For the same compound, in series [2], the “Solubility, Condition 1” value is recorded as “− (“−” denotes lack of solubility at the given condition, as UV absorbance at 340 nm exceeds 0.1 AU and/or it is visibly turbid or contains particles)”; the “Solubility, Condition 2” value is on record as “− (“−” denotes lack of solubility at the given condition, as UV absorbance at 340 nm exceeds 0.1 AU and/or it is visibly turbid or contains particles)”; the “Solubility, Condition 3” value is “+ (“+” denotes solubility at the given condition, as determined by UV absorbance being less than 0.1 AU at 340 nm and the sample being clear when manually inspected)”; the “Solubility, Condition 4” value was “+ (“+” denotes solubility at the given condition, as determined by UV absorbance being less than 0.1 AU at 340 nm and the sample being clear when manually inspected)”. For the same compound, in series [2], the “Solubility, Condition 5” value was “+ (“+” denotes solubility at the given condition, as determined by UV absorbance being less than 0.1 AU at 340 nm and the sample being clear when manually inspected)”.

As a reminder, the IC50 is the concentration at which inhibition is half-maximal.
